Experimental findings from patent publication US20240391936A1, “TETRAHYDROTHIENO PYRIDINE DERIVATIVES AS DDRS INHIBITORS” (CHIESI FARMACEUTICI S.P.A., priority 2021, published 2024) are described below.

The target in assay [1] is T1, DDR1 (Homo sapiens, UniProt Q08345). The assay is described as follows: DDR1 binding assay (LanthaScreen Europium Kinase Binding assay). On the set-up: purchased Carna Biosciences. The note with it: binding assay, 5 nM DDR1, 20 nM Kinase Tracer 178; Ki from IC50 by Cheng-Prusoff; read-out: Ki DDR1. In outline: (§1)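 TR-FRET tracer-displacement format: 665/615 nm emission ratio (340 nm excitation) gave IC50 by 4-parameter fit, then Ki via Cheng-Prusoff. Each kinase at 5 nM with 2 nM Eu-anti-GST antibody and Tracer 178 (DDR1 20 nM, DDR2 10 nM), 1 h, room temperature, HEPES pH 7.5 buffer.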
T1 sequence (Q08345 19-913): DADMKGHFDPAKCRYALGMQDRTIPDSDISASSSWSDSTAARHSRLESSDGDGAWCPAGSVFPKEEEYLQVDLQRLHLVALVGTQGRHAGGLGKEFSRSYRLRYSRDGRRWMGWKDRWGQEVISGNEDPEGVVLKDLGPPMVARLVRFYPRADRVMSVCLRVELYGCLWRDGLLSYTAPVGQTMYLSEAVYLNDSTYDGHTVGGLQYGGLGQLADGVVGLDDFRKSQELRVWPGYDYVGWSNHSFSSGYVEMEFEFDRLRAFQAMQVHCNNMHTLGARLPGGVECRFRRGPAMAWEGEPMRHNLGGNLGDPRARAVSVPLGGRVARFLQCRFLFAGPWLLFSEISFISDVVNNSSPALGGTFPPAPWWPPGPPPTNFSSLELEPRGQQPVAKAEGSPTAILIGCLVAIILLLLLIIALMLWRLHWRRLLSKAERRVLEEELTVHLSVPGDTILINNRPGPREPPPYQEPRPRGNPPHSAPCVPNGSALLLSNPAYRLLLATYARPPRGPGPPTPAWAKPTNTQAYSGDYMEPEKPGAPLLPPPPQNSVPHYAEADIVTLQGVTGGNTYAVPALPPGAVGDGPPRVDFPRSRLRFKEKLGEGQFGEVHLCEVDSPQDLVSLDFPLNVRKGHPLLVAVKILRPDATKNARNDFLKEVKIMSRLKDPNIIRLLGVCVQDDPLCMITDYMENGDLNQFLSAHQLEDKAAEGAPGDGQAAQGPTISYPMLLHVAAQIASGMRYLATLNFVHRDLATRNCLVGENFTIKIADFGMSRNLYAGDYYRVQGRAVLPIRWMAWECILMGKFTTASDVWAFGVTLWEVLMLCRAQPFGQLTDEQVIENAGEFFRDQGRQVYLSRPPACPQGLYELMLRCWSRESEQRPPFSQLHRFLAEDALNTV
Background: TR-FRET usually uses a lanthanide donor and a delayed reading to cut background.

In assay [2] the target is T2, DDR2 (Homo sapiens, UniProt Q16832).
T2 sequence (Q16832 22-855): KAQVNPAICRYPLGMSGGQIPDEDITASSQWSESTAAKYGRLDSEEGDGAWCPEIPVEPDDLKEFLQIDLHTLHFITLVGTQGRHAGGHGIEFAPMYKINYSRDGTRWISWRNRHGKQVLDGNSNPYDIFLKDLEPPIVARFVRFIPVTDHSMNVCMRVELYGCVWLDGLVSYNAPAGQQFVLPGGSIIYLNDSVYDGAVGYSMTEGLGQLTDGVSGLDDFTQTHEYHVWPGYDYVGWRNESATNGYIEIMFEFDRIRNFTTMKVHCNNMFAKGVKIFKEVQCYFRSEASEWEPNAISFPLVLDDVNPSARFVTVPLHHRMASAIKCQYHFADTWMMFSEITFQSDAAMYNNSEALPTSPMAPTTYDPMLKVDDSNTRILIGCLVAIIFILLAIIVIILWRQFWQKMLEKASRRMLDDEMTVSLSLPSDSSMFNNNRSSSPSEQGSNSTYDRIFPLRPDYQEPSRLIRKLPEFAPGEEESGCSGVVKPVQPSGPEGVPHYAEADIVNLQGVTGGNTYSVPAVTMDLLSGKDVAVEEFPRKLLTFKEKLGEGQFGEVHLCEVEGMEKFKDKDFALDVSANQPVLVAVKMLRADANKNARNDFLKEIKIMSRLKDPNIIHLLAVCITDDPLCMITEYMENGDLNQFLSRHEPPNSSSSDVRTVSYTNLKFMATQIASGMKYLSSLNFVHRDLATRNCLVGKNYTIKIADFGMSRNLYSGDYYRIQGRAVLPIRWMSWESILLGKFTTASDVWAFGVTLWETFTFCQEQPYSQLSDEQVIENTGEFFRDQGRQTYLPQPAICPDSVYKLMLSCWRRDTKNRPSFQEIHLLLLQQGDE
The assay is described as follows: DDR2 binding assay (LanthaScreen Europium Kinase Binding assay). The arrangement: purchased Life Technologies. The note with it: binding assay, 5 nM DDR2, 10 nM Kinase Tracer 178; Ki from IC50 by Cheng-Prusoff; read-out: Ki DDR2. In outline:
as §1

Assay [3] has as its target T2, DDR2. Briefly: DDR2 cell based assay (phospho-ELISA in HEK293T-DDR2 recombinant cells). The arrangement: expressed in transfected cells; host or cells: HEK293T-DDR2 recombinant cells. Particulars: bovine Type II Collagen 50 μg/ml. The method in brief:
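HEK293T-DDR2 cells, serum-starved 3 h, treated with compounds 30 min before 3 h stimulation with bovine type II collagen at 50 μg/ml. Lysate phospho-DDR2 measured by ELISA, normalized to maximal-inhibition and collagen II (20 μg/ml) controls; IC50 from variable-slope sigmoidal fit.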

Assay [4] concerns the target T1, DDR1. Briefly: DDR1 cell based assay (PathHunter U2OS DDR1 assay). On the set-up: host or cells: U2OS-DDR1 (PathHunter). The note with it: U2OS-DDR1 cells, bovine Type II Collagen 20 μg/ml. In outline:
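Receptor activation measured by enzyme-fragment complementation luminescence in engineered U2OS cells. Compound added 30 min before overnight challenge with 20 μg/ml bovine collagen II; data scaled between vehicle and collagen-stimulated controls, IC50 derived by four-parameter variable-slope fitting.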

Broadly, the Ki is the dissociation constant of the complex between target and ligand, obtained from inhibition or displacement. What is called IC50 is the concentration at which inhibition is half-maximal. With `O=C(Nc1cccc(C(F)(F)F)c1)c1csc2c1CCN(C(=O)c1cnc3ccccn13)C2` [Example 7, 6-(imidazo[1,2-a]pyridine-3-carbonyl)-N-(3-(trifluoromethyl)phenyl)-4,5,6,7-tetrahydrothieno[2,3-c]pyridine-3-carboxamide], the inhibition constant Ki in assay [1] and in assay [2] was below 25 nM throughout. In addition, the IC50 in assay [3] and in assay [4] was below 25 nM throughout.

In the case of `CC1Cc2c(C(=O)Nc3cccc(C(F)(F)F)c3)csc2CN1Cc1cnc2cnccn12` (single isomer, unassigned) [Example 104, 6-(imidazo[1,2-a]pyrazin-3-ylmethyl)-5-methyl-N-(3-(trifluoromethyl)phenyl)-4,5,6,7-tetrahydrothieno[2,3-c]pyridine-3-carboxamide], the Ki in assay [1] and in assay [2] was below 25 nM in each case. The values for the IC50 in assay [3] and in assay [4] were 50 to 80 nM and below 25 nM, respectively.
